Experiments:
CCK1 (CCKA) (h) = target: T1, CCK1 (CCKA) (h) (Homo sapiens, UniProt P32238); assay: biochemical; design: Eurofins SafetyScreen44 radioligand displacement, inhibition of control specific binding; conditions: read-out: % Inhibition of Control Specific Binding, Mean
T1 construct: gene CCKAR

CB2(h) = target: T2, CB2(h) (Homo sapiens, UniProt P34972); assay: biochemical; design: Eurofins SafetyScreen44 radioligand displacement, inhibition of control specific binding; conditions: read-out: % Inhibition of Control Specific Binding, Mean
T2 construct: gene CNR2

5-HT6 (h) = target: T3, 5-HT6 (h) (Homo sapiens, UniProt P50406); assay: biochemical; design: Eurofins SafetyScreen44 radioligand displacement, inhibition of control specific binding; conditions: read-out: % Inhibition of Control Specific Binding, Mean
T3 construct: gene HTR6

5-HT7 (h) = target: T4, 5-HT7 (h) (Homo sapiens, UniProt P34969); assay: biochemical; design: Eurofins SafetyScreen44 radioligand displacement, inhibition of control specific binding; conditions: read-out: % Inhibition of Control Specific Binding, Mean
T4 construct: gene HTR7

Lck kinase (h) = Lck kinase (h) (Homo sapiens, UniProt P06239); assay: biochemical; design: Eurofins SafetyScreen44 enzyme assays, inhibition of control specific activity; conditions: read-out: % Inhibition of Control Values, Mean
COX1(h) = target: T5, COX1(h) (Homo sapiens, UniProt P23219); assay: biochemical; design: Eurofins SafetyScreen44 enzyme assays, inhibition of control specific activity; conditions: read-out: % Inhibition of Control Values, Mean
T5 construct: gene PTGS1

5-HT1A(h) = target: T6, 5-HT1A(h) (Homo sapiens, UniProt P08908); assay: biochemical; design: Eurofins SafetyScreen44 radioligand displacement, inhibition of control specific binding; conditions: read-out: % Inhibition of Control Specific Binding, Mean
T6 construct: gene HTR1A

[1] = target: T7, norepinephrine transporter(h) (Homo sapiens, UniProt P23975); assay: biochemical; design: Eurofins SafetyScreen44 radioligand displacement, inhibition of control specific binding; conditions: read-out: % Inhibition of Control Specific Binding, Mean
T7 construct: gene SLC6A2

D1(h) = target: T8, D1(h) (Homo sapiens, UniProt P21728); assay: biochemical; design: Eurofins SafetyScreen44 radioligand displacement, inhibition of control specific binding; conditions: read-out: % Inhibition of Control Specific Binding, Mean
T8 construct: gene DRD1

5-HT2A(h) = target: T9, 5-HT2A(h) (Homo sapiens, UniProt P28223); assay: biochemical; design: Eurofins SafetyScreen44 radioligand displacement, inhibition of control specific binding; conditions: read-out: % Inhibition of Control Specific Binding, Mean
T9 construct: gene HTR2A

μ (MOP) (h) = target: T10, μ (MOP) (h) (Homo sapiens, UniProt P35372); assay: biochemical; design: Eurofins SafetyScreen44 radioligand displacement, inhibition of control specific binding; conditions: read-out: % Inhibition of Control Specific Binding, Mean
T10 construct: gene OPRM1

M4(h) = target: T11, M4(h) (Homo sapiens, UniProt P08173); assay: biochemical; design: Eurofins SafetyScreen44 radioligand displacement, inhibition of control specific binding; conditions: read-out: % Inhibition of Control Specific Binding, Mean
T11 construct: gene CHRM4

ETA(h) = target: T12, ETA(h) (Homo sapiens, UniProt P25101); assay: biochemical; design: Eurofins SafetyScreen44 radioligand displacement, inhibition of control specific binding; conditions: read-out: % Inhibition of Control Specific Binding, Mean
T12 construct: gene EDNRA

dopamine transporter(h) = target: T13, dopamine transporter(h) (Homo sapiens, UniProt Q01959); assay: biochemical; design: Eurofins SafetyScreen44 radioligand displacement, inhibition of control specific binding; conditions: read-out: % Inhibition of Control Specific Binding, Mean
T13 construct: gene SLC6A3

5-HT transporter (h) = target: T14, 5-HT transporter (h) (Homo sapiens, UniProt P31645); assay: biochemical; design: Eurofins SafetyScreen44 radioligand displacement, inhibition of control specific binding; conditions: read-out: % Inhibition of Control Specific Binding, Mean
T14 construct: gene SLC6A4

D5(h) = target: T15, D5(h) (Homo sapiens, UniProt P21918); assay: biochemical; design: Eurofins SafetyScreen44 radioligand displacement, inhibition of control specific binding; conditions: read-out: % Inhibition of Control Specific Binding, Mean
T15 construct: gene DRD5

COX2(h) = target: T16, COX2(h) (Homo sapiens, UniProt P35354); assay: biochemical; design: Eurofins SafetyScreen44 enzyme assays, inhibition of control specific activity; conditions: read-out: % Inhibition of Control Values, Mean
T16 construct: gene PTGS2

µ-opioid receptor = target: T17, µ-opioid receptor (Rattus norvegicus, UniProt P33535); assay: [3H]DAMGO radioligand displacement in rat cortex homogenates; format: binding
T17 construct: gene Oprm1; rat cortex homogenates

M2 (h) = target: T18, M2 (h) (Homo sapiens, UniProt P08172); assay: biochemical; design: Eurofins SafetyScreen44 radioligand displacement, inhibition of control specific binding; conditions: read-out: % Inhibition of Control Specific Binding, Mean
T18 construct: gene CHRM2

β1(h) = target: T19, β1(h) (Homo sapiens, UniProt P08588); assay: biochemical; design: Eurofins SafetyScreen44 radioligand displacement, inhibition of control specific binding; conditions: read-out: % Inhibition of Control Specific Binding, Mean
T19 construct: gene ADRB1

acetylcholinesterase (h) = target: T20, acetylcholinesterase (h) (Homo sapiens, UniProt P22303); assay: biochemical; design: Eurofins SafetyScreen44 enzyme assays, inhibition of control specific activity; conditions: read-out: % Inhibition of Control Values, Mean
T20 construct: gene ACHE

[2] = target: T21, Potassium Channel hERG (human) (Homo sapiens, UniProt Q12809); assay: in vitro; design: Eurofins SafetyScreen44 radioligand displacement, inhibition of control specific binding; conditions: read-out: % Inhibition of Control Specific Binding, Mean
T21 construct: gene KCNH2

PDE4D2 (h) = target: T22, PDE4D2 (h) (Homo sapiens, UniProt Q08499); assay: biochemical; design: Eurofins SafetyScreen44 enzyme assays, inhibition of control specific activity; conditions: read-out: % Inhibition of Control Values, Mean
T22 construct: gene PDE4D; isoform PDE4D2

5-HT1B (h) = target: T23, 5-HT1B (h) (Homo sapiens, UniProt P28222); assay: biochemical; design: Eurofins SafetyScreen44 radioligand displacement, inhibition of control specific binding; conditions: read-out: % Inhibition of Control Specific Binding, Mean
T23 construct: gene HTR1B

adrenergic receptor α2A = target: T24, adrenergic receptor α2A (Homo sapiens, UniProt P08913); assay: SafetyScreen44 panel (Eurofins), single concentration […]; conditions: read-out: % inhibition at 10 μM
T24 construct: gene ADRA2A

kappa (h) (KOP) = target: T25, kappa (h) (KOP) (Homo sapiens, UniProt P41145); assay: biochemical; design: Eurofins SafetyScreen44 radioligand displacement, inhibition of control specific binding; conditions: read-out: % Inhibition of Control Specific Binding, Mean
T25 construct: gene OPRK1

Lck kinase (h), sequence (P06239 whole entry): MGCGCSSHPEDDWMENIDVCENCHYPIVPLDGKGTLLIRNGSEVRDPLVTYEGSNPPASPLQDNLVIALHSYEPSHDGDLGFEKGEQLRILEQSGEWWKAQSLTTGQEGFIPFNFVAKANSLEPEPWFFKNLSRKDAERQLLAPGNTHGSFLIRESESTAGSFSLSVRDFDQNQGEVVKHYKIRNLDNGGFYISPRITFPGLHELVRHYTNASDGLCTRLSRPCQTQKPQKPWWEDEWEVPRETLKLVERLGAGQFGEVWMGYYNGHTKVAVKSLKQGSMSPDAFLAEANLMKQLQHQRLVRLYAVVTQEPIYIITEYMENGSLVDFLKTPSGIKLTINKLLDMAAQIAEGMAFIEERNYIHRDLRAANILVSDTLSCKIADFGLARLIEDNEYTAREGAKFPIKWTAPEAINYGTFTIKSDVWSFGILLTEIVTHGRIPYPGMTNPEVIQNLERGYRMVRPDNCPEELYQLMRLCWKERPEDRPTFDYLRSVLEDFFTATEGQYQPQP
T1 sequence (P32238 whole entry): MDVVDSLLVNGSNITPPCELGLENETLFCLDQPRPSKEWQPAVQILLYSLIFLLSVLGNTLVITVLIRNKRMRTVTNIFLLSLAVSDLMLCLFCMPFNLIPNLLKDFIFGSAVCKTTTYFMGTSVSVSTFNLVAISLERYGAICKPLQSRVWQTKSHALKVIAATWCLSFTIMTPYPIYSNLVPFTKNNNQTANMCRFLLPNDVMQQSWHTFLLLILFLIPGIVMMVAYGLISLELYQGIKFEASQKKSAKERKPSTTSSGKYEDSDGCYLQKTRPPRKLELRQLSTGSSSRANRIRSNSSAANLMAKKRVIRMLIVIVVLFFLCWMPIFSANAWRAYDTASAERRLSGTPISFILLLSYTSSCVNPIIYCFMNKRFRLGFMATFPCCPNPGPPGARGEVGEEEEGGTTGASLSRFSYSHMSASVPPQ
T21 sequence (Q12809 whole entry): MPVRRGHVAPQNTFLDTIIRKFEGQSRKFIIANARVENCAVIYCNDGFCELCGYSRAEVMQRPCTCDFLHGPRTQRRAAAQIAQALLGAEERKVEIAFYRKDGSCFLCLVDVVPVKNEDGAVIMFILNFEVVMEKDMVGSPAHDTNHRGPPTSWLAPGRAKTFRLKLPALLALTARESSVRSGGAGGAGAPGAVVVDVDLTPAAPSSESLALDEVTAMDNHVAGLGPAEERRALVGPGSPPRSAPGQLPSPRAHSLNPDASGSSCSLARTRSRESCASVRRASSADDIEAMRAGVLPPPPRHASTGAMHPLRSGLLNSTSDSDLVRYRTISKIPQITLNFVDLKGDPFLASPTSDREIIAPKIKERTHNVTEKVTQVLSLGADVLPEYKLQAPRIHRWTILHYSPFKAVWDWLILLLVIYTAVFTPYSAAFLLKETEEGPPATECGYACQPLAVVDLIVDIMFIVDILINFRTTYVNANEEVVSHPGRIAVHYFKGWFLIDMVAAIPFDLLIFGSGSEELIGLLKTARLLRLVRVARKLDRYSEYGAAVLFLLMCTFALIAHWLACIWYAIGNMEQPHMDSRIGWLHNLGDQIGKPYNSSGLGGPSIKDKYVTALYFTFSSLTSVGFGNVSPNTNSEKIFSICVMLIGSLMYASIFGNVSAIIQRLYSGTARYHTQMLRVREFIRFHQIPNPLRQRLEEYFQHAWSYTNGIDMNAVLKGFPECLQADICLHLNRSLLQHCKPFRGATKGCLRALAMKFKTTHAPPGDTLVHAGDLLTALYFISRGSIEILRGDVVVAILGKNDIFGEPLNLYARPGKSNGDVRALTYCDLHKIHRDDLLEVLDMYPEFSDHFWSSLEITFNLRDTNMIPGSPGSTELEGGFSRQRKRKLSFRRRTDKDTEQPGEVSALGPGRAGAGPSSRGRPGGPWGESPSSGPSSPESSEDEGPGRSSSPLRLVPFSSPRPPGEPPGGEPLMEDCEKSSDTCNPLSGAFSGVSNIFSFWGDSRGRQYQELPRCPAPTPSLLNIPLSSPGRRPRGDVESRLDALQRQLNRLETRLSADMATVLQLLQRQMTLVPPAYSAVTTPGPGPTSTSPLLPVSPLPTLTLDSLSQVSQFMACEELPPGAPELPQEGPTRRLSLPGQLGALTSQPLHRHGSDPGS
T3 sequence (P50406 whole entry): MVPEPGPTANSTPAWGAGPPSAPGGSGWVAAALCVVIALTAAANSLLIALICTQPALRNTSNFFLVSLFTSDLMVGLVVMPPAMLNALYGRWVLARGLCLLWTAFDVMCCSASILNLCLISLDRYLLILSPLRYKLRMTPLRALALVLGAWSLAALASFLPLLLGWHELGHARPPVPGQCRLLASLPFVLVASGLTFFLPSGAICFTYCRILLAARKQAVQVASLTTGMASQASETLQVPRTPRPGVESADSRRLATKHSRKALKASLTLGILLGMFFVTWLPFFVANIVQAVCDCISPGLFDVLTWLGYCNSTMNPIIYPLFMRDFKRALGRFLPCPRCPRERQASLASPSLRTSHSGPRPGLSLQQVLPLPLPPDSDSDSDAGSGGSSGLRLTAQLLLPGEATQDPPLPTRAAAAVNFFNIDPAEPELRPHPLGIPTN
T15 sequence (P21918 whole entry): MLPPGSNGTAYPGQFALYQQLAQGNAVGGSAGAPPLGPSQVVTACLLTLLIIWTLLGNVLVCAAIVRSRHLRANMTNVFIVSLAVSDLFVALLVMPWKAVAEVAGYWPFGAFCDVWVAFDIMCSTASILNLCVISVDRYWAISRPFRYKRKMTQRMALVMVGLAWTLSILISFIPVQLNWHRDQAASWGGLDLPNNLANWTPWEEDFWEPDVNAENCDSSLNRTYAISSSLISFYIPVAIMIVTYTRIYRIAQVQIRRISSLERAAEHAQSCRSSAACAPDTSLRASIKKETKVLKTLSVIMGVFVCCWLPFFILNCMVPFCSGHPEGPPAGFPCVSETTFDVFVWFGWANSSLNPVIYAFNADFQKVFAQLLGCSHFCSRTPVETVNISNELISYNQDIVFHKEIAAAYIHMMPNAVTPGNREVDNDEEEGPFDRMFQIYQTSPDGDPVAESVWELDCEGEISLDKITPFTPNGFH
T18 sequence (P08172 whole entry): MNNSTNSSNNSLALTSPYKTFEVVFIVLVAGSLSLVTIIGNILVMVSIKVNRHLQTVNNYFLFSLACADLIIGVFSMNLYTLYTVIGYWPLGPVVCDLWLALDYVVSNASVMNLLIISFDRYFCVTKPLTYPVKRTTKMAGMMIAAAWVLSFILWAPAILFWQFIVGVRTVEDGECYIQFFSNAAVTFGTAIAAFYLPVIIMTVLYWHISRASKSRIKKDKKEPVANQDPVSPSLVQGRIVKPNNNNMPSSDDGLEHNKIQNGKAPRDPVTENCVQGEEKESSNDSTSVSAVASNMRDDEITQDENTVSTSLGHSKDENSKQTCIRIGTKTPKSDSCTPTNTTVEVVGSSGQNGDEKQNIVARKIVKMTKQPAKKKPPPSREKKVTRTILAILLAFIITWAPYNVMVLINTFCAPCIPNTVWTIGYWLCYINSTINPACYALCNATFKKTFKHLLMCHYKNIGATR
T10 sequence (P35372 whole entry): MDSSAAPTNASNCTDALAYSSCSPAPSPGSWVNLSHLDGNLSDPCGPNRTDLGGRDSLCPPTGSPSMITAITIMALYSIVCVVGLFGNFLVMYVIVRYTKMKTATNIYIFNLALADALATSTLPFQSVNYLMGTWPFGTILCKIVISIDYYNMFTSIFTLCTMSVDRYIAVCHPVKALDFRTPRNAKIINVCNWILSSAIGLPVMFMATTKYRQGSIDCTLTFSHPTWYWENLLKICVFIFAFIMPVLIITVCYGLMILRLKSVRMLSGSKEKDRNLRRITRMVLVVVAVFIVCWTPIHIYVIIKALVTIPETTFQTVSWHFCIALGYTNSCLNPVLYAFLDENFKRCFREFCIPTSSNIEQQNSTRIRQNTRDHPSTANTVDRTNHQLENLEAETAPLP
T17 sequence (P33535 whole entry): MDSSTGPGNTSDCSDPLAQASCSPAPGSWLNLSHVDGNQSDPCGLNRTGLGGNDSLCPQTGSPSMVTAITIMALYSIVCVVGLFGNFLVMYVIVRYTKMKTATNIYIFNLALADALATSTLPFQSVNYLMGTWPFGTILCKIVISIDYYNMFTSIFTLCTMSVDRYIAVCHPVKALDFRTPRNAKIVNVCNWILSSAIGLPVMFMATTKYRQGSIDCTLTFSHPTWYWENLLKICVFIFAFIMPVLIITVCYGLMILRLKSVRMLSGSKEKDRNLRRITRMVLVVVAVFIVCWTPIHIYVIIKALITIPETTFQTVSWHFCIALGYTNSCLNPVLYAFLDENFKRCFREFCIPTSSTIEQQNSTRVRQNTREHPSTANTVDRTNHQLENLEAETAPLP
T6 sequence (P08908 whole entry): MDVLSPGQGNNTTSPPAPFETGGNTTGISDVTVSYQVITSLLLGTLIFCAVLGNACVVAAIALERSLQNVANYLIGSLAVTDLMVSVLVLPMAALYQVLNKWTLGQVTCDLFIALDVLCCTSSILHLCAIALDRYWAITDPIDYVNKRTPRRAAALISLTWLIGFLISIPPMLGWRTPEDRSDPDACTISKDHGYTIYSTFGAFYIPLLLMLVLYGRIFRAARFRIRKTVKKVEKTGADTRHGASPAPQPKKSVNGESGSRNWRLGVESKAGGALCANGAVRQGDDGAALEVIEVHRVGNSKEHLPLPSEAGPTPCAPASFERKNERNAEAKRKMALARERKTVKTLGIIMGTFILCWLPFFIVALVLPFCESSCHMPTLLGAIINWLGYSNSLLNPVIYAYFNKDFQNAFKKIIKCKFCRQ

Structure (SMILES): COCCN(CC1CCCN(Cc2ccccc2)C1)S(=O)(=O)c1ccc2ccccc2c1 (racemic) [compound 4, (±)N-((1-benzylpiperidin-3-yl)methyl)-N-(2-methoxyethyl)naphthalene-2-sulfonamide]
- inhibition at 10 µM (CCK1 (CCKA) (h)): 21.9%
- inhibition at 10 µM (CB2(h)): 17.6%
- inhibition at 10 µM (5-HT6 (h)): 87.1%
- inhibition at 10 µM (5-HT7 (h)): 84.3%
- inhibition at 10 µM (Lck kinase (h)): 52.7%
- inhibition at 10 µM (COX1(h)): 0.4%
- inhibition at 10 µM (5-HT1A(h)): 96.2%
- inhibition at 10 µM [1]: 34.1%
- inhibition at 10 µM (D1(h)): 32.4%
- inhibition at 10 µM (5-HT2A(h)): 93%
- inhibition at 10 µM (μ (MOP) (h)): 82.7%
- inhibition at 10 µM (M4(h)): 63.2%
- inhibition at 10 µM (ETA(h)): -3.9%
- inhibition at 10 µM (dopamine transporter(h)): 26%
- inhibition at 10 µM (5-HT transporter (h)): 12.7%
- inhibition at 10 µM (D5(h)): 24.2%
- inhibition at 10 µM (COX2(h)): 2.2%
- Ki (µ-opioid receptor): 1.8 µM
- inhibition at 10 µM (M2 (h)): 85.7%
- inhibition at 10 µM (β1(h)): 4.5%
- inhibition at 10 µM (acetylcholinesterase (h)): 12.3%
- inhibition at 10 µM [2]: 84.8%
- inhibition at 10 µM (PDE4D2 (h)): -3.7%
- inhibition at 10 µM (5-HT1B (h)): 45%
- inhibition at 10 µM (adrenergic receptor α2A): 60.9%
- inhibition at 10 µM (kappa (h) (KOP)): 26.1%
